How the values were obtained:
CT60 cells [1] = assay: Filipin binding assay, average filipin intensity and staining pattern; assay type: cell-based, Chinese hamster; details: for Average Filipin Assay @ 10 μM dose Fraction of Control: compounds from secondary library
Description: We developed assays for correction of the NPC phenotype in CHO cell lines using filipin, which binds to non-esterified cholesterol and has been used to visualize the free cholesterol content in NPC cells. The initial screens were carried out in CT60 cells, which express a mutated hamster NPC1 protein and a gain of function mutation in SCAP (42). These cells cannot traffic LDL-derived cholesterol out of late endosomes, and large amounts of cholesterol accumulate in LSO compartments. FIGS. 1A-B show images of filipin staining in a control CHO cell line, TRVb1 (45) (FIG. 1A) and in CT60 cells (FIG. 1B). It can be seen that the CT60 cells show much more filipin staining than control cells and that the fluorescence in CT60 cells is concentrated in peri-nuclear organelles.
For screening, images were acquired using a Discovery-1 automated microscopy system with a 10× objective and corrected for background and shading as described in Methods. Two thresholds were set for filipin staining, a low threshold to include all cell areas, and a high threshold for the strong filipin staining in the peri-nuclear LSOs. The threshold values were set for each plate from analysis of 64 images in 32 wells of untreated CT60 cells. […] In developing the low threshold, we compared the outlines based on the thresholded cell images with transmitted light images, and the thresholds provided good agreement with the transmitted light cell boundaries.
As a simple measure of the intensity of filipin staining, we measured the filipin intensity per pixel above the threshold. The conditions of filipin labeling (time and concentration) were adjusted to optimize the discrimination between the CT60 cells and control TRVb1 cells. […] The quality of the assay for screening is expressed in terms of a statistical parameter Z′(46):
Using the above screening technique, we screened a library of 14,956 compounds added to cells for 16 hours at a final concentration of 10 μM, using a single well for each compound. Prior to application of the compounds, cells were grown in normal tissue culture medium containing 10% FBS, so the LSOs were filled with cholesterol (FIG. 1B). The cells were then imaged and analyzed using the average filipin intensity assay and the LSO compartment assay. In general, the two analyses identified similar compounds that reduced the filipin labeling.
Compound addition: The library compounds were formatted for screening in the Rockefeller University High Throughput Screening Facility. Cells were treated with the compounds from the chemical library one day after plating. We added […] of each compound (5 mM stock in DMSO) to 25 μl of screening Medium S composed of medium A supplemented with 1% FBS and 20 mM 4-(2-hydroxyethyl)-1-pipiperazine ethane sulphonic acid (HEPES) in Falcon 384-well V-bottomed polypropylene plates using a Packard MiniTrak™ robotic liquid handling system. To obtain ˜10 μM final concentration, 23 μl of the premixed compounds were dispensed into the plates containing cells and […] of culture medium A. For primary screening, 352 test compounds were added to each plate, and the remaining 32 wells were used as a control with only DMSO added. All plates were incubated with compounds for 16 h at 37° C. Plates were then washed three times with phosphate buffered saline pH 7.4 (PBS) using a Bio-Tek Elx405 plate washer (Bio-Tek Instruments Inc., Winooski, Vt.). For each wash cycle, […] of PBS was dispensed followed by aspiration with a residual volume of 16 μl per well. Finally, cells were fixed with 1.5% PFA in PBS for 20 min at room temperature, followed by 3 more washes with PBS.
Fluorescence labeling. To the fixed cells, filipin was added at a final concentration of 50 μg/ml in PBS for 45 m at room temperature to label free cholesterol. Cells were finally washed three times with PBS, and images were acquired immediately after labeling. […]

CT60 cells [2] = assay: Filipin binding assay, LSO compartment ratio (dose dependence, time course); assay type: cell-based, Chinese hamster
Text: Although the intensity assay was potentially useful, it seemed that additional information in the images could provide better discrimination of wild type vs. NPC cells. For this purpose, we took advantage of the spatial distribution of the filipin labeling of the LSOs, which cluster near the nucleus (FIG. 1B). We applied the second, higher threshold for this bright cluster. We then measured the total fluorescence intensity in the selected LSO objects (high threshold, FIG. 2C) divided by the total number of pixels in cells (low threshold, FIG. 2D).
Image analysis: Images of filipin-stained cells were analyzed using Metamorph Discovery-1 image analysis software. Two different image analysis assays were developed: (1) Average filipin intensity assay and (2) LSO compartment ratio assay. First, to correct for shading an image was created by averaging all of the images from a plate and smoothing the averaged image using a low pass filter. Then each pixel in an image was multiplied by the average intensity of the shading image, and the resulting pixel intensities were divided by the shading image on a pixel-by-pixel basis. Background was subtracted from each shading-corrected image by determining the 5th percentile intensity value of the image and subtracting this value from each pixel in the image. At the plating density used, all fields had at least 5% of the imaged areas that was cell-free. Next, two different thresholds were applied to the filipin images. For the first, a low threshold was set to include all areas occupied by cells. […] A second, higher threshold was set for brightly stained regions in CT60 and/or CT43 cells by selecting bright areas of filipin staining, with the intention of mainly identifying the LSOs in the perinuclear region of the cells. For the Average filipin intensity assay, using the low threshold alone, we measured total filipin intensity above the low threshold divided by the number of pixels above the lower threshold for each field. This gave an average filipin intensity per cell area. For the LSO compartment ratio we measured the total filipin intensity selectively in the region above the higher threshold divided by the number of pixels in the lower threshold. This gave a measure of the total intensity of LSO filipin per cell area.
Dose Dependence: Using the same methods as for the screening, compounds were tested at 10 μM, 3.33 μM, 1.11 μM, 370 nM and 123 nM in four wells each. Batches of selected compounds were purchased from Chemical Diversity, and 10 mM stocks in DMSO were made. A secondary stock plate of 2× concentration (20 μM, 6.66 μM, 2.22 μM, 740 nM and 246 nM) of compounds was prepared in screening medium S. To obtain the final concentrations, […] of this secondary stock was added to the cells in each well containing 30 μl of growth medium A supplemented with 10% FBS. The final DMSO concentration (0.2% v/v) was the same in all wells. Cells were plated at 650 cells per well in 30 μl of growth medium A supplemented with 10% FBS in Costar 384 well plates. After 20 h of incubation in the presence of the compounds, cells were washed with PBS, fixed with PFA and stained with filipin as described for the screening assay. Dose dependence determination of the initial 14 hit compounds from the primary library was done at least 5 times in CT60 cells and 3 times in CT43 cells in separate experiments. Dose dependence determination of the 7 hit compounds from the secondary library was carried out at least 3 times in CT60 cells and 2 times in CT43 cells in separate experiments.
The effects of the compounds were determined at 1.11, 3.33 and 10 μM concentrations after 4, 20 and 48 h using methods similar to the dose dependence. The CT60 cells were seeded in three 384 well plates at 600 cells/well in growth medium on day 1. To maintain the same density of cells at the final time point, compounds were added chronologically. […]

| Compound | Average filipin intensity Fraction of control (CT60 cells [1]; 10 μM, 14 hit compounds from primary library) | shape of dose-response curve (CT60 cells [2]; 123 nM to 10 μM) | Average Filipin Assay @ 10 μM dose Fraction of Control (CT60 cells [1]) | decrease in the LSO compartment ratio after 4 hr treatment (CT60 cells [2]; 4 hr, 1.1, 3.3 and 10 μM tested) | Lowest Effective Dose (LSO Assay) (−3 SD @ 20 h) (CT60 cells [2]) [µM] | effect below solvent control at 123 nM (CT60 cells [2]) [SD] |
| --- | --- | --- | --- | --- | --- | --- |
| CCOc1cccc2cc(-c3csc(Nc4cccc(C(F)(F)F)c4)n3)c(=O)oc12 [Compound 1-a-14] | 1.24 ± 0.04 Fraction of control | unusual dose-response curve |  |  |  |  |
| CCN(CC)c1ccc(C=C2SC(=S)N(c3ccc(OC)cc3)C2=O)cc1 [Compound 2-a-3] |  |  | 0.75 ± 0.01 Fraction of Control | more than 3 SD | 3.33 |  |
| COc1ccccc1Nc1nc(Nc2ccccc2OC)nc(Nc2ccccc2OC)n1 [Compound 2-a-9] |  |  | 0.74 ± 0.01 Fraction of Control |  | 370 | 2 |
| FC(F)(F)COc1nc(NN=Cc2cccc(I)c2)nc(N(c2ccccc2)c2ccccc2)n1 [Compound 2-a-12] |  |  | 0.87 ± 0.01 Fraction of Control |  | 370 | 2 |
| O=[N+]([O-])c1cccc(C=NNc2nc(Nc3cccc4ccccc34)nc(N(c3ccccc3)c3ccccc3)n2)c1 [Compound 2-a-13] |  |  | 0.75 ± 0.02 Fraction of Control |  | 370 |  |
| C=CCN1C(=O)C(=Cc2cc(C)n(-c3ccccc3)c2C)C(C(=O)OC)=C1C [Compound 2-a-15] |  |  | 0.79 ± 0.01 Fraction of Control |  | 3.33 |  |
